Results on two molecules are retold here after ChEMBL document CHEMBL3882730, “Organic Compounds as Smo Inhibitors” (2010).

≈ marks a conversion by molar mass, not a printed value.

This series can be described thus: Equilibrium solubility of the compound at pH 6.8. It is filed as physicochemical. The settings on record: buffer.

As a reminder, the solubility (thermodynamic) is the concentration in solution at equilibrium with solid. `CC(C)(O)c1cnc(N2CCN(c3nnc(Cc4ccccc4)c4c3CCC4)CC2)cn1`: the thermodynamic solubility is under 5 µM.
`C[C@@H]1CN(c2nnc(Cc3ccccc3)c3c2CCC3)CCN1c1cnc(C(C)(C)O)cn1` had a solubility (thermodynamic) of 5 to 20 µM (≈ 2.22 to 8.89 µg/mL).
